Experimental data: paper PMC10608985, “Retention Behavior of Anticancer Thiosemicarbazides in Biomimetic Chromatographic Systems and In Silico Calculations” (Molecules, 2023)

How the values were obtained:
[1] = set-up: method as in Kozyra et al. [31]; details: MeOH/20 mM acetate buffer, pH 7.4, ref Kozyra et al. [31], cited from earlier work; for log kw C-18: intercept of Soczewiński–Wachtmeister equation (water as mobile phase); for -S C-18: slope of Soczewiński–Wachtmeister equation
[2] = test system: α1-acid glycoprotein (AGP); assay: HPLC on immobilized AGP column, affinity and % plasma–protein binding; assay type: in vitro ADME, human; details: for log K AGP: binding equilibrium constant from calibration curve (Equation 9) of log k AGP; for fraction unbound: human, pH 7.4, % plasma–protein binding converted from log K AGP (Equation 10), read-out: %PPB AGP (converted); for log k AGP: retention on AGP column, 50 mM ammonium acetate pH 7.4 / propan-2-ol 85/15 (v/v)
Protocol: (§1) Measurements on HSA and AGP immobilized protein columns were carried out with […] isopropanol content in the aqueous mobile phase.
(§2) The standard calibration curve was used to predict log K values (K—binding equilibrium constant) of investigated compounds to HSA and AGP. Next, the log K values were converted into a percentage of plasma–protein binding (%PPB) of the compounds (Table 2). […] It is the lowest for compound 16 with -NO2 substituent, unsubstituted compound 1, and fluorine derivatives 2 and 9. In a group of […] derivatives in the same position of the phenyl ring, the %PPB to AGP increases with the increase in the atomic weight of the halogen atom and the lipophilicity of the molecule.
(§3) HPLC measurements were performed using a liquid chromatograph Knauer (Knauer, Berlin, Germany) with a dual pump, a 20 µL simple injection valve, and a UV–visible detector. The compounds were detected under UV light at 280 nm at room temperature. The retention time of an unretained solute (t0) was determined by the injection of a small amount of citric acid dissolved in water.
(§4) A human serum albumin (HSA) immobilized on the 5 µm silica gel column 100 × 3 mm (Chiralpac) and an α1-acid glycoprotein (AGP) immobilized on the 5 µm silica gel column 100 × 4 mm (Chiralpac) were used. The compounds were dissolved at 0.5 mg/mL concentration in 50% propan-2-ol and ammonium acetate solution (pH = 7.4) mixtures for HSA measurements. The mobile phase was composed of 50 mM ammonium acetate solution (pH = 7.4) and propan-2-ol at 85/15 (v/v) for AGP, respectively. The flow of mobile phases was 0.5 mL×min^−1. Log k values for the selected mobile phase were determined for all studied compounds and standard substances. The % protein plasma binding (% PPB) values were calculated from the calibration curve according to Valko et al..
(§5) Calibration of the protein columns: The column performance check and the calibration check were performed before measurements. The racemic mixture of warfarin was used for their performance evaluation. The following calibration set of drugs was applied: bromazepam, carbamazepine, diclofenac, nicardipine, nizatidine, piroxicam for HSA and bromazepam, chlorpromazine, imipramine, nicardipine, nizatidine, propranolol, and warfarin for AGP. The analytical standards were purchased from Sigma Aldrich Steinhen, Steinheim am Albuch, Germany). The drugs were dissolved at 0.5 mg/mL concentration in 50% propan-2-ol and ammonium acetate solution mixtures (pH = 7.4). The obtained log k values from HPLC were plotted against the log K values (K—binding equilibrium constant, log K—linearized PPB) based on the literature data for plasma–protein binding (%, PPB). The following relationships were obtained: log KHSA = 0.2513 (±0.0984) + 1.0525 (±0.1171) log k HSA(8) n=6, R=0.9761, R^2 = 0.9528, Radj2 = 0.9410, s = 0.1948 log KAGP = 0.1733 (±0.0574) + 0.8902 (±0.0787) log k AGP(9) n=7, R=0.9810, R^2 = 0.9623, Radj2 = 0.9548, s = 0.1113
(§6) Log K values were converted into %PPB using the following equation [15]:(10) %PPB=101×10^logK/1+10^logK

[3] = HPLC lipophilicity on cholesterol (Chol) stationary phase; assay type: physicochemical; details: pH 7.4; for Log k Chol: Table S3; for log kw Chol: intercept, linear extrapolation to water; for log kw Chol / -S Chol: MeOH/20 mM acetate buffer; for -S Chol: slope of Soczewiński–Wachtmeister equation
Protocol: (§7) For the evaluation of the compounds the following stationary phases were used: C-18; biomimetic, IAM; cholesterol (Chol); immobilized proteins HSA and AGP. For the lipophilicity determination, MeOH (C-18, Chol) or ACN (IAM) were applied as the organic modifiers. The measurements were performed at pH 7.4 of the mobile phase. The regular changes in the retention of all solutes used as organic modifier content in the mobile phase on three studied stationary phases were found. It is expressed by the Soczewiński–Wachtmeister Equation (1):log k = log kw + S (% organic modifier)(1) where log kw—the intercept; S—the slope of regression curve. […] Log kw as well as S parameters are commonly applied as lipophilicity descriptors.
as §3
Cogent 4 UDC Cholesterol (150 × 2.1 mm, 4 µm) MicroSolv Technology Corporation (Leland, NC, USA) column was used. The mobile phase consisted of different volume mixtures of MeOH as the organic modifier and 20 mM acetate buffer as the aqueous phase, to obtain pH = 7.4. The concentrations of the organic modifier were in the range from 0.3 to 0.8 (v/v) with step 0.05 or 0.1 (Table S3 in the Supplementary Materials). The flow rate was 0.35 mL × min^−1.

[4] = HPLC lipophilicity on IAM (immobilized artificial membrane, phosphatidylcholine) stationary phase; assay type: physicochemical; details: pH 7.4; for Log k IAM: Table S2; for log kw IAM: intercept, linear extrapolation to water; for log kw IAM / -S IAM: ACN/20 mM phosphate buffer; for -S IAM: slope of Soczewiński–Wachtmeister equation
Protocol: as §7, §3
A Rexchrom IAM.PC.DD2 (12 μm, 100 × 4.6 mm, 300 Å) (Regis Technologies, Morton Grove, IL, USA) column was used as the stationary phase. The compounds were dissolved at a concentration of 0.5 mg × mL^−1 in MeOH. The mobile phases consisted of different volume fractions of ACN and 20 mM phosphate buffer; the aqueous phase maintained a pH = 7.4 (0.02 M KH2PO4, Na2HPO4 and 0.15 M KCl). The acetonitrile concentration ranged from 0.05 to 0.4 (v/v), depending on the structure of compound, at 0.05 intervals (Table S2 in the Supplementary Materials). The flow rate was 1 mL × min^−1.

[5] = biological target: T1, human serum albumin (HSA) (Homo sapiens, UniProt P02768); assay: HPLC on immobilized HSA column, affinity and % plasma–protein binding; assay type: in vitro ADME; details: for log K HSA: binding equilibrium constant from calibration curve (Equation 8) of log k HSA; for fraction unbound: human, pH 7.4, % plasma–protein binding converted from log K HSA (Equation 10), read-out: %PPB HSA (converted); for log k HSA: retention on HSA column, 50 mM ammonium acetate pH 7.4 / propan-2-ol 85/15 (v/v)
T1 construct: purchased Chiralpac
Protocol: as §1, §2, §3, §4, §5, §6

T1 sequence (P02768 25-609): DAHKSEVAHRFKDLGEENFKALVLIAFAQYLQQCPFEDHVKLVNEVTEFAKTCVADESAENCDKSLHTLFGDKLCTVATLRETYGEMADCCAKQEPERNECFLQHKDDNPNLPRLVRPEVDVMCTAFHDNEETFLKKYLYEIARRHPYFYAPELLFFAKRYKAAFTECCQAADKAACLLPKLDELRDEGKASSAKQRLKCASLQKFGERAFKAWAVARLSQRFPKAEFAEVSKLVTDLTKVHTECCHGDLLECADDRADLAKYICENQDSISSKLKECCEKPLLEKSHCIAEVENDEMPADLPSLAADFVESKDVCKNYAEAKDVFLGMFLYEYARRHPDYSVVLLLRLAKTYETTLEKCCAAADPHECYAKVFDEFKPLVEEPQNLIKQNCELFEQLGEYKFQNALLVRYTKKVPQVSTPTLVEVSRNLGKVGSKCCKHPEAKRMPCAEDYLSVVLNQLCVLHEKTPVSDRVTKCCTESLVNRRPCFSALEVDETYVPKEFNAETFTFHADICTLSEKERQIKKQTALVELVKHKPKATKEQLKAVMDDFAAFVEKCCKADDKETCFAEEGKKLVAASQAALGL

SMILES	log kw C-18 [1]	-S C-18 [1]	log K AGP [2]	fraction unbound [2]	log k AGP [2]	Log k Chol ([3]; MeOH 0.35 v/v in mobile phase)	Log k Chol ([3]; MeOH 0.40 v/v in mobile phase)	Log k Chol ([3]; MeOH 0.45 v/v in mobile phase)	Log k Chol ([3]; MeOH 0.50 v/v in mobile phase)	Log k Chol ([3]; MeOH 0.60 v/v in mobile phase)	log kw Chol [3]	-S Chol [3]	Log k IAM ([4]; ACN 0.15 v/v in mobile phase)	Log k IAM ([4]; ACN 0.20 v/v in mobile phase)	Log k IAM ([4]; ACN 0.25 v/v in mobile phase)	Log k IAM ([4]; ACN 0.35 v/v in mobile phase)	-S IAM [4]	log K HSA [5]	fraction unbound [5]	log k HSA [5]	other results
O=C(COc1ccccc1)NNC(=S)Nc1ccc(F)cc1 [Compound 9]	2.1145	4.2984	0.3891	0.283	0.2424	0.970	0.696	0.523	0.179	-0.078	2.4029	4.2398	0.336	0.088	-0.150	-0.467	5.1370	1.2852	0.04	0.9823	Log k Chol ([3]; MeOH 0.30 v/v in mobile phase): 1.111; Log k Chol ([3]; MeOH 0.80 v/v in mobile phase): -0.997; Log k IAM ([4]; ACN 0.05 v/v in mobile phase): 1.054; Log k IAM ([4]; ACN 0.10 v/v in mobile phase): 0.588; Log k IAM ([4]; ACN 0.30 v/v in mobile phase): -0.484; log kw IAM [4]: 1.1652
O=C(COc1ccccc1)NNC(=S)Nc1ccc([N+](=O)[O-])cc1 [Compound 16]	2.7200	5.1865	0.3508	0.302	0.1994	1.082	0.843	0.478	0.093	-0.189	2.8538	5.2122	0.590	0.253	0.016	-0.533	6.0875	1.7456	0.008	1.4198	Log k Chol ([3]; MeOH 0.30 v/v in mobile phase): 1.264; Log k IAM ([4]; ACN 0.05 v/v in mobile phase): 1.287; Log k IAM ([4]; ACN 0.10 v/v in mobile phase): 0.964; log kw IAM [4]: 1.5455
O=C(COc1ccccc1)NNC(=S)Nc1ccc(Cl)cc1Cl [Compound 13]	3.2152	5.1803	0.5886	0.197	0.4665		1.246	0.978	0.627	0.400	3.4517	5.4505	1.240	0.870	0.557	-0.103	6.2034	1.6879	0.01	1.3649	Log k Chol ([3]; MeOH 0.70 v/v in mobile phase): -0.329; Log k Chol ([3]; MeOH 0.80 v/v in mobile phase): -1.016; Log k IAM ([4]; ACN 0.30 v/v in mobile phase): 0.067; Log k IAM ([4]; ACN 0.40 v/v in mobile phase): -0.430
CSc1ccc(NC(=S)NNC(=O)COc2ccccc2)cc1 [Compound 17]	2.6753	4.6859	0.6672	0.169	0.5548	1.434	1.108	0.878	0.510	0.379	3.1664	5.0386	0.821	0.513	0.282	-0.280	5.7908	1.6830	0.011	1.3603	Log k Chol ([3]; MeOH 0.70 v/v in mobile phase): -0.316; Log k Chol ([3]; MeOH 0.80 v/v in mobile phase): -0.975; Log k IAM ([4]; ACN 0.10 v/v in mobile phase): 1.147; Log k IAM ([4]; ACN 0.30 v/v in mobile phase): -0.101; log kw IAM [4]: 1.6998
O=C(COc1ccccc1)NNC(=S)Nc1cccc(Cl)c1 [Compound 6]	2.7672	4.8532	0.6152	0.187	0.4964	1.270	1.016	0.766	0.422	0.160	2.9670	4.8849	0.982	0.647	0.333	-0.247	6.3395	1.3217	0.036	1.0170	Log k Chol ([3]; MeOH 0.80 v/v in mobile phase): -0.975; Log k IAM ([4]; ACN 0.10 v/v in mobile phase): 1.270; Log k IAM ([4]; ACN 0.30 v/v in mobile phase): -0.082; log kw IAM [4]: 1.9101
